For data set [1], the target named is T1, Beta-secretase 1 (Homo sapiens, UniProt P56817). The experiment in a line: Inhibition of human BACE1 using biotin-XSEVNLDAEFRHDSGC-Eu as substrate incubated for 3 hrs by fluorescence method.
For a further data set, the target named is Cathepsin D (Homo sapiens, UniProt P07339). As to the kind of experiment: Inhibition of recombinant Cathepsin D (unknown origin) expressed in CHO cells preincubated for 1 hr followed by substrate addition and measured after 1 hr by FRET assay. The class given is cell-based.
For data set [2], the target named is T1, Beta-secretase 1. As to the kind of experiment: Inhibition of BACE1 (unknown origin) assessed as reduction in amyloidbeta 40 level after 24 hrs by cell-based sandwich ELISA. (In general: ELISA stands for enzyme-linked immunosorbent assay.)
Data set [3] has as its system Rattus norvegicus. The experiment in a line: In vivo inhibition of BACE1 in Sprague Dawley rat assessed as reduction in amyloidbeta 40 level in CSF at 10 mg/kg, po measured at 4 hrs post dose by sandwich ELISA relative to control. The class given is functional.
In data set [4] the target is T1, Beta-secretase 1. The experiment in a line: Inhibition of BACE1 (unknown origin) preincubated for 1 hr followed by substrate addition and measured after 1 hr by FRET assay.
Data set [5] has as its system Rattus norvegicus. The experiment in a line: In vivo inhibition of BACE1 in Sprague Dawley rat assessed as reduction in amyloidbeta 40 level in brain at 10 mg/kg, po measured at 4 hrs post dose by sandwich ELISA relative to control. Format: functional.
The next data set has as its target P-glycoprotein (ABCB1) (Homo sapiens, UniProt P08183). The experiment in a line: Substrate activity at P-glycoprotein (unknown origin) in MDCK-MDR1 cells assessed as efflux ratio. The class given is ADME, cell-based.
In data set [6] the target is T1, Beta-secretase 1. The experiment in a line: Inhibition of BACE1 (unknown origin) expressed in CHO-K1 cells using Biotin-GLTNIKTEEISEISYAEVEFR-C[Oregon Green]KK-OH as substrate incubated for 3 hrs by fluorescence polarization. For orientation: Fluorescence polarisation rises when a labelled molecule tumbles more slowly, as on binding a larger partner.
Data set [7] in a line: Dissociation constant, pKa of the compound. The class given is physicochemical.
The target in data set [8] is T1, Beta-secretase 1. As to the kind of experiment: Inhibition of BACE1 in human H4 cells transfected with APP695 assessed as […] incubated for 18 hrs by ELISA. The class given is cell-based.
Data set [9] addresses Voltage-gated inwardly rectifying potassium channel KCNH2 (Homo sapiens, UniProt Q12809). The experiment in a line: Inhibition of human ERG expressed in CHO cells at holding potential of -80 mV by patch clamp method. Format: cell-based.

T1 sequence (P56817 whole entry): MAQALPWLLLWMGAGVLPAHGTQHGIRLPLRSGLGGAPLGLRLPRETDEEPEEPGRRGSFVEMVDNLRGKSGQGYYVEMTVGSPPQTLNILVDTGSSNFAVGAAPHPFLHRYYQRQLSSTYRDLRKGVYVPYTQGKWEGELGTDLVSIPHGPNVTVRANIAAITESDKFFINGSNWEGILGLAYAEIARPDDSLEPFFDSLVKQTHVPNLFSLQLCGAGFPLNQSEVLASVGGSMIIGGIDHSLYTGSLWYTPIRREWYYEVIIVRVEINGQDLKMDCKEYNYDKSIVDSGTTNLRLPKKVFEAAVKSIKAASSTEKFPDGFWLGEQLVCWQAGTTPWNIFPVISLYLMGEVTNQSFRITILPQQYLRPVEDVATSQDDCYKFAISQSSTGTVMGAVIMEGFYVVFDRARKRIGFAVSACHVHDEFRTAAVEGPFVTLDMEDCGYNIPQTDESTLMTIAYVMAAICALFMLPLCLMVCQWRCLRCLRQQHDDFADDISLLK
Chain of Cathepsin D (P07339 65-162 limits assumed): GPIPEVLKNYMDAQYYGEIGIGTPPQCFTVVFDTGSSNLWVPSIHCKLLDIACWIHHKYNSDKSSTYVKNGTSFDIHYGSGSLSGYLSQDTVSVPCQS
Chain of Cathepsin D (P07339 169-412 limits assumed): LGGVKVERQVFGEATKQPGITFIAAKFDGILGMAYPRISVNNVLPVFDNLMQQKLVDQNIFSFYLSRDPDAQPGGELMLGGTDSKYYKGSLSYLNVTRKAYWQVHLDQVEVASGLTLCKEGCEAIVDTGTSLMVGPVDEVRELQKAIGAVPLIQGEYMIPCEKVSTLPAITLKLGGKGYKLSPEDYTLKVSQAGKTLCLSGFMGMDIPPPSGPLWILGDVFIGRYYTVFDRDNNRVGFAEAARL
Chain of Voltage-gated inwardly rectifying potassium channel KCNH2 (Q12809 whole entry): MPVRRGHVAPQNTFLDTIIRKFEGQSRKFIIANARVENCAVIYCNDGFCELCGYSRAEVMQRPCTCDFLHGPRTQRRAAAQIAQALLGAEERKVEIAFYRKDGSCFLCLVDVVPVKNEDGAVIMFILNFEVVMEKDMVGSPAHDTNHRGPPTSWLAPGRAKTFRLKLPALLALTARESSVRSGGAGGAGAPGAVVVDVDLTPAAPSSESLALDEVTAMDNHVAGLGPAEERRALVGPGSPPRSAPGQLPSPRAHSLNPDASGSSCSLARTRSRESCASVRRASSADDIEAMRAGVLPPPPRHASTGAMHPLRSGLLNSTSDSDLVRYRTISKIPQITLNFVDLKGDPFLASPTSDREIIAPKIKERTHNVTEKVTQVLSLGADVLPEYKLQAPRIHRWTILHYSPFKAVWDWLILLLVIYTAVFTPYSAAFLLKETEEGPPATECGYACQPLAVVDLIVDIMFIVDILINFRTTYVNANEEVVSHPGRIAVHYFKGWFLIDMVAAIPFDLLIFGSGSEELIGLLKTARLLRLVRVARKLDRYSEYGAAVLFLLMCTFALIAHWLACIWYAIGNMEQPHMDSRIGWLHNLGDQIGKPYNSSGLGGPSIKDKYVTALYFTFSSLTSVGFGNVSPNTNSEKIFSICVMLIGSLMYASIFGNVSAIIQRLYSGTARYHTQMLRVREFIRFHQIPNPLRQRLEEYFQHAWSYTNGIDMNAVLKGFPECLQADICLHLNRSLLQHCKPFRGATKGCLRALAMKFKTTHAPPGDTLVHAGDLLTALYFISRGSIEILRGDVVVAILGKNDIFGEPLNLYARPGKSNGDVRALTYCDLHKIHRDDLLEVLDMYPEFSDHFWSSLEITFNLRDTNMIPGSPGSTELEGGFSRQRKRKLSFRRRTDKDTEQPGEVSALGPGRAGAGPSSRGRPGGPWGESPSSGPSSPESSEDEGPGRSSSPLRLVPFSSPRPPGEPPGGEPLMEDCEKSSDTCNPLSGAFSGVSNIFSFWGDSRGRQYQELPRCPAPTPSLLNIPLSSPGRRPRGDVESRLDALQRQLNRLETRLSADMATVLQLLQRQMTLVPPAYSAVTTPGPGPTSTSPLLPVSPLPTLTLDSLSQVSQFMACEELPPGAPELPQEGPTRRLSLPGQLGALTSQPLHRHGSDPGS
Chain of P-glycoprotein (ABCB1) (P08183 whole entry): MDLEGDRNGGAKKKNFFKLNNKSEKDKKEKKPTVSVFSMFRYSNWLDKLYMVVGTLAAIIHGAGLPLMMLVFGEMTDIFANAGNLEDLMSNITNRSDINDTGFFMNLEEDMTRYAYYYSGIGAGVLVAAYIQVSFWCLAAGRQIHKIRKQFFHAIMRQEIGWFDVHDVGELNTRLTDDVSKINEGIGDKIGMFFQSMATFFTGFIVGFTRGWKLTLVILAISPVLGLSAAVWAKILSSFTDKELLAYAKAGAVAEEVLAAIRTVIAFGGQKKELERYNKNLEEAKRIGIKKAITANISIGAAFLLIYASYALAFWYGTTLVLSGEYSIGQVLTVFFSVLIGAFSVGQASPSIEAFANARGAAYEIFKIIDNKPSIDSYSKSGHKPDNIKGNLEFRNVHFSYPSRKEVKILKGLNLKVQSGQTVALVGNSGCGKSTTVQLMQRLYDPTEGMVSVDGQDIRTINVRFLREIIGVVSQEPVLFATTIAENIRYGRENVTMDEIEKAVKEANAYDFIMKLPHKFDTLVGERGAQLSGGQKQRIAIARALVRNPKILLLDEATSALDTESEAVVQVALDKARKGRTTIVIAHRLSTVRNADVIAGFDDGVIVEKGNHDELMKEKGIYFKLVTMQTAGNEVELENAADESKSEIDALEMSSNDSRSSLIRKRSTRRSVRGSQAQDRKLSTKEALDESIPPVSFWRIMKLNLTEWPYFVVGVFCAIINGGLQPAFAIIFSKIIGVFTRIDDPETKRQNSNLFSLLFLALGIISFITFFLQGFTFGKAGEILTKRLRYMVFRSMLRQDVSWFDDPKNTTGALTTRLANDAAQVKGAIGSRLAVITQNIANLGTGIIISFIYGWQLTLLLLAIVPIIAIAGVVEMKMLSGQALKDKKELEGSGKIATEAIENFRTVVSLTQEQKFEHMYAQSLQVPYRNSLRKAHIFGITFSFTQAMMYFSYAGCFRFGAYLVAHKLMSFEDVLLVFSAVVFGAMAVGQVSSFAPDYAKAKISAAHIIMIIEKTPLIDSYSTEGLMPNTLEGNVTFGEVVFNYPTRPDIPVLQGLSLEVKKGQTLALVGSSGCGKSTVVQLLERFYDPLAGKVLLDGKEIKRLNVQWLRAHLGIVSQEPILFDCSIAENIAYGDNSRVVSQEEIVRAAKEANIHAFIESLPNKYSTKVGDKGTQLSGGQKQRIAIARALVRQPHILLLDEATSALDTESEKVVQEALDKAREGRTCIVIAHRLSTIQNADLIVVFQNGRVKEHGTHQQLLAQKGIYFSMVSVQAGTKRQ

Regarding `CC#CC(=O)Nc1ccc(F)c(C2(C)Cc3c(F)cncc3C(N)=N2)c1` (stereo unspecified), the midpoint of inhibition against Beta-secretase 1 [1], the IC50, lay at 0.054 µM.
Turning to `Cc1cc(Cl)cnc1C(=O)Nc1ccc(F)c([C@@]2(C)N=C(N)[C@]3(C)CC[C@H]2S3(=O)=O)c1`, the IC50 – broadly, the concentration at which inhibition is half-maximal – on Cathepsin D amounted to 1740 µM; on Beta-secretase 1 [2], 0.002 µM; against Beta-secretase 1 [4], 0.002 µM. Also, the inhibition in vivo (commonly the change of the read-out against control, counted positive when it falls) at 10 mg/kg with Rattus norvegicus [3] was 76%; with Rattus norvegicus [5], 66%.
Take `C[C@H]1C[C@H]2CSC(N)=N[C@@]2(c2ncc(NC(=O)c3ccc(OC(F)F)cn3)s2)CO1`: at P-glycoprotein (ABCB1), the efflux ratio (as a rule, a quotient of directional permeabilities that is used to spot active efflux) came to 7. Also, the IC50 against Beta-secretase 1 [6] was above 100 µM; at Beta-secretase 1 [8], 13.6 µM; in data set [9] it was 12 µM. In addition, in data set [7], the pKa – broadly, the pH at which an ionisable group is half protonated – came to 7.

The values are drawn from ChEMBL document CHEMBL4342403, “New evolutions in the BACE1 inhibitor field from 2014 to 2018” (Bioorg Med Chem Lett, 2019).
